Reference: US9833497B2, “Human originated EGF domain proteins and use of the same” (CHENGDU SOURCEBIO LIMITED-LIABILITY COMPANY, priority 2013, dated 2017)

Key:
Assay type in all cases: cell-based
Moraxella catarrhalis = assay: MIC against Gram-negative bacteria: Moraxella catarrhalis; details: for MIC (μg/mL) M. catarrhalis / MIC against M. catarrhalis: 5×10^5 CFU/mL
Method in brief: (§1)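 Read-out is absence of bacterial growth, with MIC set at the lowest recombinant protein concentration achieving it. Bacteria, pre-grown in LB to McFarland 0.5 and resuspended, were exposed at 5×10^5 CFU/mL to two-fold diluted human EGF domain proteins in triplicate at 37° C, 175 rpm.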

Proteus mirabilis = assay: MIC against Gram-negative bacteria: Proteus mirabilis; details: for MIC (μg/mL) P. mirabilis / MIC against P. mirabilis: 5×10^5 CFU/mL
Method in brief: as §1

Pseudomonas aeruginosa = assay: MIC against Gram-negative bacteria: Pseudomonas aeruginosa; details: for MIC (μg/mL) P. aeruginosa / MIC against P. aeruginosa: 5×10^5 CFU/mL
Method in brief: as §1

Enterobacter cloacae = assay: MIC against Gram-negative bacteria: Enterobacter cloacae; details: for MIC (μg/mL) E. cloacae / MIC against E. cloacae: 5×10^5 CFU/mL
Method in brief: as §1

Aeromonas hydrophila = assay: MIC against Gram-negative bacteria: Aeromonas hydrophila; details: for MIC (μg/mL) A. hydrophila / MIC against A. hydrophila: 5×10^5 CFU/mL
Method in brief: as §1

Klebsiella pneumonia = assay: MIC against Gram-negative bacteria: Klebsiella pneumonia; details: for MIC (μg/mL) K. pneumonia / MIC against K. pneumonia: 5×10^5 CFU/mL
Method in brief: as §1

Proteus vulgaris = assay: MIC against Gram-negative bacteria: Proteus vulgaris; details: for MIC (μg/mL) P. vulgaris / MIC against P. vulgaris: 5×10^5 CFU/mL
Method in brief: as §1

Serratia marcescens = assay: MIC against Gram-negative bacteria: Serratia marcescens; details: for MIC (μg/mL) S. marcescens / MIC against S. marcescens: 5×10^5 CFU/mL
Method in brief: as §1

E. coli BL21 = assay: MIC against Gram-negative bacteria: E. coli BL21; details: for MIC (μg/mL) E. coli BL21 / MIC against E. coli BL21: 5×10^5 CFU/mL
Method in brief: as §1

Citrobacter diversus = assay: MIC against Gram-negative bacteria: Citrobacter diversus; details: for MIC (μg/mL) C. diversus / MIC against C. diversus: 5×10^5 CFU/mL
Method in brief: as §1

E. coli DH5α = assay: Antibacterial activity: MIC and growth curve against E. coli DH5α in 96-well plate; details: minimal inhibitory concentration against E. coli DH5α; 96-well plate, 5×10^5 CFU/mL, 37° C., judged after 8 h
Method in brief: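 Log-phase DH5α (OD600 about 0.5, 37° C, 185 rpm in LB) was pelleted, resuspended in fresh LB and seeded at 5×10^5 CFU/mL with recombinant protein at 50, 25 and 12.5 μg/mL (two-fold series), in triplicate. Plates were shaken at 175 rpm, 37° C, and OD600 was read every 30 min. MIC was the lowest concentration with no growth.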

[1] = Moraxella catarrhalis, 96-well plate, 37° C., 10 h
[2] = Proteus mirabilis, 96-well plate, 37° C., 10 h
[3] = Pseudomonas aeruginosa, 96-well plate, 37° C., 10 h
[4] = Enterobacter cloacae, 96-well plate, 37° C., 10 h
[5] = Aeromonas hydrophila, 96-well plate, 37° C., 10 h
[6] = Klebsiella pneumonia, 96-well plate, 37° C., 10 h
[7] = Proteus vulgaris, 96-well plate, 37° C., 10 h
[8] = Serratia marcescens, 96-well plate, 37° C., 10 h
[9] = E. coli BL21, 96-well plate, 37° C., 10 h
[10] = Citrobacter diversus, 96-well plate, 37° C., 10 h
[11] = M. catarrhalis, 10 h cultivation at 37° C.
[12] = P. mirabilis, 10 h cultivation at 37° C.
[13] = P. aeruginosa, 10 h cultivation at 37° C.
[14] = E. cloacae, 10 h cultivation at 37° C.
[15] = A. hydrophila, 10 h cultivation at 37° C.
[16] = K. pneumonia, 10 h cultivation at 37° C.
[17] = P. vulgaris, 10 h cultivation at 37° C.
[18] = S. marcescens, 10 h cultivation at 37° C.
[19] = E. coli BL21, 10 h cultivation at 37° C.
[20] = C. diversus, 10 h cultivation at 37° C.

In the case of “PRT4 (LDVTCNIKNGRCEQFCKNSADNKVVCSCTEGYRLAENQKSCE; listed as Homo sapiens)”, the “MIC (μg/mL) M. catarrhalis” value (Moraxella catarrhalis; [1]) is reported as 25 µg/mL, the “MIC (μg/mL) P. mirabilis” value (Proteus mirabilis; [2]) is reported as 25 µg/mL and the “MIC (μg/mL) P. aeruginosa” value (Pseudomonas aeruginosa; [3]) is reported as 25 µg/mL. For the same substance, the “MIC (μg/mL) E. cloacae” value (Enterobacter cloacae; [4]) was 12.5 µg/mL, the “MIC (μg/mL) A. hydrophila” value (Aeromonas hydrophila; [5]) was 25 µg/mL and the “MIC (μg/mL) K. pneumonia” value (Klebsiella pneumonia; [6]) was 25 µg/mL. The “MIC (μg/mL) P. vulgaris” value (Proteus vulgaris; [7]) was 50 µg/mL, the “MIC (μg/mL) S. marcescens” value (Serratia marcescens; [8]) was 25 µg/mL and the “MIC (μg/mL) E. coli BL21” value (E. coli BL21; [9]) was 50 µg/mL. For the same substance, the “MIC (μg/mL) C. diversus” value (Citrobacter diversus; [10]) was 12.5 µg/mL and the MIC (E. coli DH5α) was 25 µg/mL.
For “PRT469 (NCSTTCFNGGTCFYPGKCICPPGLEGEQCE; listed as Homo sapiens)”, the “MIC against M. catarrhalis” value (Moraxella catarrhalis; 96-well plate, 37° C., 10 h) was 50 µg/mL, the “MIC against P. mirabilis” value (Proteus mirabilis; 96-well plate, 37° C., 10 h) was 12.5 µg/mL and the “MIC against P. aeruginosa” value (Pseudomonas aeruginosa; 96-well plate, 37° C., 10 h) was 12.5 µg/mL. The “MIC against E. cloacae” value (Enterobacter cloacae; 96-well plate, 37° C., 10 h) was 50 µg/mL, the “MIC against A. hydrophila” value (Aeromonas hydrophila; 96-well plate, 37° C., 10 h) was 25 µg/mL and the “MIC against K. pneumonia” value (Klebsiella pneumonia; 96-well plate, 37° C., 10 h) was 25 µg/mL. The “MIC against P. vulgaris” value (Proteus vulgaris; 96-well plate, 37° C., 10 h) was 50 µg/mL, the “MIC against S. marcescens” value (Serratia marcescens; 96-well plate, 37° C., 10 h) was 12.5 µg/mL and the “MIC against E. coli BL21” value (E. coli BL21; 96-well plate, 37° C., 10 h) was 25 µg/mL. The “MIC against C. diversus” value (Citrobacter diversus; 96-well plate, 37° C., 10 h) was 12.5 µg/mL and the MIC (E. coli DH5α) was 12.5 µg/mL.
With “PRT20 (QKNLCNNTGDPEMCPENGSCVPDGPGLLQCVCADGFHGYKCM; listed as Homo sapiens)” the “MIC (μg/mL) M. catarrhalis” value (Moraxella catarrhalis; [1]) was 12.5 µg/mL, the “MIC (μg/mL) P. mirabilis” value (Proteus mirabilis; [2]) was 50 µg/mL and the “MIC (μg/mL) P. aeruginosa” value (Pseudomonas aeruginosa; [3]) was 50 µg/mL. For the same substance, the “MIC (μg/mL) E. cloacae” value (Enterobacter cloacae; [4]) was 12.5 µg/mL, the “MIC (μg/mL) A. hydrophila” value (Aeromonas hydrophila; [5]) was 50 µg/mL and the “MIC (μg/mL) K. pneumonia” value (Klebsiella pneumonia; [6]) was 25 µg/mL. The “MIC (μg/mL) P. vulgaris” value (Proteus vulgaris; [7]) was 25 µg/mL, the “MIC (μg/mL) S. marcescens” value (Serratia marcescens; [8]) was 12.5 µg/mL and the “MIC (μg/mL) E. coli BL21” value (E. coli BL21; [9]) was 25 µg/mL. For the same substance, the “MIC (μg/mL) C. diversus” value (Citrobacter diversus; [10]) was 25 µg/mL and the MIC (E. coli DH5α) was 12.5 µg/mL.
In the case of “PRT218 (DINECDASNQCAQQCYNILGSFICQCNQGYELSSDRLNCE; listed as Homo sapiens)”, the “MIC (μg/mL) M. catarrhalis” value (Moraxella catarrhalis; [11]) is reported as 50 µg/mL, the “MIC (μg/mL) P. mirabilis” value (Proteus mirabilis; [12]) is reported as 25 µg/mL and the “MIC (μg/mL) P. aeruginosa” value (Pseudomonas aeruginosa; [13]) is reported as 50 µg/mL. The “MIC (μg/mL) E. cloacae” value (Enterobacter cloacae; [14]) was 25 µg/mL, the “MIC (μg/mL) A. hydrophila” value (Aeromonas hydrophila; [15]) was 12.5 µg/mL and the “MIC (μg/mL) K. pneumonia” value (Klebsiella pneumonia; [16]) was 50 µg/mL. The “MIC (μg/mL) P. vulgaris” value (Proteus vulgaris; [17]) was 50 µg/mL, the “MIC (μg/mL) S. marcescens” value (Serratia marcescens; [18]) was 25 µg/mL and the “MIC (μg/mL) E. coli BL21” value (E. coli BL21; [19]) was 50 µg/mL. For the same substance, the “MIC (μg/mL) C. diversus” value (Citrobacter diversus; [20]) was 25 µg/mL and the MIC (E. coli DH5α) was 100 µg/mL.
“PRT755 (AVDYCASENHGCEHECVNADGSYLCQCHEGFALNPDKKTCT; listed as Homo sapiens)” was tested, and the “MIC (μg/mL) M. catarrhalis” value (Moraxella catarrhalis; [11]) was 50 µg/mL, the “MIC (μg/mL) P. mirabilis” value (Proteus mirabilis; [12]) was 12.5 µg/mL and the “MIC (μg/mL) P. aeruginosa” value (Pseudomonas aeruginosa; [13]) was 12.5 µg/mL. For the same substance, the “MIC (μg/mL) E. cloacae” value (Enterobacter cloacae; [14]) was 12.5 µg/mL, the “MIC (μg/mL) A. hydrophila” value (Aeromonas hydrophila; [15]) was 50 µg/mL and the “MIC (μg/mL) K. pneumonia” value (Klebsiella pneumonia; [16]) was 50 µg/mL. The “MIC (μg/mL) P. vulgaris” value (Proteus vulgaris; [17]) was 12.5 µg/mL, the “MIC (μg/mL) S. marcescens” value (Serratia marcescens; [18]) was 25 µg/mL and the “MIC (μg/mL) E. coli BL21” value (E. coli BL21; [19]) was 50 µg/mL. For the same substance, the “MIC (μg/mL) C. diversus” value (Citrobacter diversus; [20]) was 12.5 µg/mL and the MIC (E. coli DH5α) was 12.5 µg/mL.
With “PRT1238 (IGEACPKLCSGHGYCTTGAICICDESFQGDDCS; listed as Homo sapiens)” the “MIC against M. catarrhalis” value (Moraxella catarrhalis; [1]) was 25 µg/mL, the “MIC against P. mirabilis” value (Proteus mirabilis; [2]) was 12.5 µg/mL and the “MIC against P. aeruginosa” value (Pseudomonas aeruginosa; [3]) was 50 µg/mL. The “MIC against E. cloacae” value (Enterobacter cloacae; [4]) was 50 µg/mL, the “MIC against A. hydrophila” value (Aeromonas hydrophila; [5]) was 12.5 µg/mL and the “MIC against K. pneumonia” value (Klebsiella pneumonia; [6]) was 12.5 µg/mL. For the same substance, the “MIC against P. vulgaris” value (Proteus vulgaris; [7]) was 25 µg/mL, the “MIC against S. marcescens” value (Serratia marcescens; [8]) was 50 µg/mL and the “MIC against E. coli BL21” value (E. coli BL21; [9]) was 12.5 µg/mL. For the same substance, the “MIC against C. diversus” value (Citrobacter diversus; [10]) was 50 µg/mL and the MIC (E. coli DH5α) was 25 µg/mL.
In the case of “PRT950 (CESGCASSPCQHGGSCHPQRQPPYYSCQCAPPFSGSRCE; listed as Homo sapiens)”, the MIC (Moraxella catarrhalis; [11]) is reported as 12.5 µg/mL, the MIC (Proteus mirabilis; [12]) is reported as 50 µg/mL and the MIC (Pseudomonas aeruginosa; [13]) is reported as 50 µg/mL. It also gave an MIC (Enterobacter cloacae; [14]) of 12.5 µg/mL, an MIC (Aeromonas hydrophila; [15]) of 50 µg/mL and an MIC (Klebsiella pneumonia; [16]) of 25 µg/mL. It also gave an MIC (Proteus vulgaris; [17]) of 25 µg/mL, an MIC (Serratia marcescens; [18]) of 12.5 µg/mL and an MIC (E. coli BL21; [19]) of 12.5 µg/mL. It also gave an MIC (Citrobacter diversus; [20]) of 25 µg/mL and an MIC (E. coli DH5α) of 50 µg/mL.
